Laboratory results from patent publication US20140193827A1 (TEVA PHARMACEUTICAL INDUSTRIES, LTD., priority 2013, published 2014).

System: GA-primed murine splenocytes
Assay: Tolerance method for assessing process variability
[1] = microarray, splenocytes activated 24 hours

## glatiramer acetate [GA]
[1]
  AVG expression of 1110067B18RIK, probe ILMN_2514723: 8.228
  AVG expression of 1190002H23RIK, probe ILMN_2593774: 7.583
  AVG expression of 1700129I04RIK, probe ILMN_1224390: 6.752
  AVG expression of 2810485I05RIK, probe ILMN_2695217: 10.37
  AVG expression of A130087I02RIK, probe ILMN_1232144: 6.482
  AVG expression of A630077B13RIK, probe ILMN_1249864: 9.099
  AVG expression of A930005H10RIK, probe ILMN_1250135: 10.04
  AVG expression of ADA, probe ILMN_2686132: 7.525
  AVG expression of AI467606, probe ILMN_1213645: 10.38
  AVG expression of ANKRD11, probe ILMN_2727235: 9.978
  AVG expression of APPL2, probe ILMN_1219978: 7.742
  AVG expression of ARHGAP4, probe ILMN_2677876: 11.38
  AVG expression of ARRB2, probe ILMN_2700848: 9.049
  AVG expression of AVIL, probe ILMN_2753149: 6.407
  AVG expression of B3GNT7, probe ILMN_2655571: 6.563
  AVG expression of B230345P09RIK, probe ILMN_2469190: 8.997
  AVG expression of BATF3, probe ILMN_2526739: 6.73
  AVG expression of BC038822, probe ILMN_2804103: 7.38
  AVG expression of BC065085, probe ILMN_2974737: 7.582
  AVG expression of BEX4, probe ILMN_3118584: 6.717
  AVG expression of BLVRB, probe ILMN_2770917: 9.003
  AVG expression of C3, probe ILMN_2759484: 8.352
  AVG expression of C130078N17RIK, probe ILMN_2522495: 10.34
  AVG expression of C230082I21RIK, probe ILMN_1248824: 8.744
  AVG expression of C430002D13RIK, probe ILMN_2571616: 7.951
  AVG expression of CCND2, probe ILMN_1225932: 8.425
  AVG expression of CCNG1, probe ILMN_2710229: 8.72
  AVG expression of CCR6, probe ILMN_2888448: 11.42
  AVG expression of CD44, probe ILMN_1223697: 10.12
  AVG expression of CHD3, probe ILMN_2524861: 7.978
  AVG expression of CHKA, probe ILMN_3026397: 12.08
  AVG expression of CLASP1, probe ILMN_1225769: 7.92
  AVG expression of CLIC4, probe ILMN_2599018: 7.206
  AVG expression of CLSPN, probe ILMN_2858359: 8.857
  AVG expression of CRTC3, probe ILMN_1248891: 8.262
  AVG expression of CSNK1G3, probe ILMN_2793946: 9.73
  AVG expression of CYP51, probe ILMN_2688075: 9.707
  AVG expression of DEADC1, probe ILMN_2705097: 9.246
  AVG expression of DGKZ, probe ILMN_1239607: 8.46
  AVG expression of DLM1-PENDING, probe ILMN_1218547: 6.869
  AVG expression of DYRK2, probe ILMN_3138439: 6.905
  AVG expression of E2F3, probe ILMN_2743503: 7.726
  AVG expression of EG433016, probe ILMN_2995688: 8.853
  AVG expression of ENTPD5, probe ILMN_3149143: 7.434
  AVG expression of F2RL1, probe ILMN_2769567: 6.312
  AVG expression of FBXO4, probe ILMN_2772920: 9.934
  AVG expression of FOSL2, probe ILMN_1252481: 8.057
  AVG expression of FOXP3, probe ILMN_2917180: 7.709
  AVG expression of FSCN1, probe ILMN_2630605: 8.879
  AVG expression of FXYD5, probe ILMN_1235493: 10.05
  AVG expression of GAB3, probe ILMN_3133748: 7.208
  AVG expression of GRN, probe ILMN_2595973: 10.66
  AVG expression of H3F3B, probe ILMN_1231168: 8.812
  AVG expression of HAMP, probe ILMN_1236304: 6.455
  AVG expression of HEG1, probe ILMN_2600022: 7.682
  AVG expression of HIST2H2AA1, probe ILMN_2751948: 7.127
  AVG expression of HTT, probe ILMN_2672091: 7.448
  AVG expression of IFITM1, probe ILMN_2814484: 7.066
  AVG expression of IFNGR2, probe ILMN_2784272: 9.806
  AVG expression of IGK-V5, probe ILMN_2631259: 11.21
  AVG expression of IL1A, probe ILMN_1227018: 8.103
  AVG expression of IL13, probe ILMN_2927131: 6.7
  AVG expression of IRF8, probe ILMN_2673369: 10.92
  AVG expression of KIF1B, probe ILMN_2587761: 6.394
  AVG expression of LDHA, probe ILMN_1257965: 12.99
  AVG expression of LOC386005, probe ILMN_2538029: 10.77
  AVG expression of LOC637711, probe ILMN_1239601: 8.053
  AVG expression of LOC677643, probe ILMN_1225733: 9.931
  AVG expression of LOC100043671, probe ILMN_1258600: 9.958
  AVG expression of LOC100046496, probe ILMN_1229263: 10.5
  AVG expression of LOC100046793, probe ILMN_2469743: 12
  AVG expression of LOC100047316, probe ILMN_1215825: 8.765
  AVG expression of LY78, probe ILMN_2585533: 7.951
  AVG expression of MSH5, probe ILMN_1241923: 6.819
  AVG expression of NFAT5, probe ILMN_2612448: 9.617
  AVG expression of NKG7, probe ILMN_1217855: 9.69
  AVG expression of PEA15, probe ILMN_2624938: 8.032
  AVG expression of PEX11C, probe ILMN_2467365: 6.162
  AVG expression of RABAC1, probe ILMN_1244857: 10.79
  AVG expression of RDM1, probe ILMN_1218934: 9.296
  AVG expression of RFC3, probe ILMN_2543834: 7.31
  AVG expression of RNF167, probe ILMN_2892856: 9.181
  AVG expression of RUNDC3B, probe ILMN_2660596: 7.1822
  AVG expression of SCN4A, probe ILMN_2814847: 7.299
  AVG expression of SDF2L1, probe ILMN_1221943: 9.843
  AVG expression of SERPINA3H, probe ILMN_2889832: 7.95
  AVG expression of SGCB, probe ILMN_1255256: 7.292
  AVG expression of SH3RF1, probe ILMN_2602597: 7.302
  AVG expression of SLC25A1, probe ILMN_2619846: 8.032
  AVG expression of SLCO3A1, probe ILMN_2663230: 8.007
  AVG expression of SMOX, probe ILMN_2597030: 8.19
  AVG expression of SPN, probe ILMN_2574982: 6.823
  AVG expression of STK4, probe ILMN_3004142: 11.07
  AVG expression of TARDBP, probe ILMN_3093089: 8.366
  AVG expression of TBCD, probe ILMN_2891506: 9.516
  AVG expression of TNF, probe ILMN_2899863: 8.846
  AVG expression of TNFAIP3, probe ILMN_1252202: 9.205
  AVG expression of TNIP1, probe ILMN_2417863: 10.34
  AVG expression of UBAC2, probe ILMN_2484838: 8.614
  AVG expression of UBAC2, probe ILMN_2949605: 10.08
  AVG expression of UBE2L6, probe ILMN_2431619: 8.561
  AVG expression of UCHL5, probe ILMN_1240153: 8.74
  AVG expression of VAMP4, probe ILMN_2516348: 8.312
  AVG expression of WDR68, probe ILMN_2546073: 7.546
  AVG expression of ZBP1, probe ILMN_1228653: 7.444
Probe IIMN_2700166
  AVG expression CCND2: 11.38
Probe ILMN_1212653
  AVG expression RFTN2: 7.109
Probe ILMN_1212982
  AVG expression ZFP318: 9.704
Probe ILMN_1213609
  AVG expression TXNIP: 11.89
Probe ILMN_1213954
  AVG expression SGK1: 9.667
Probe ILMN_1214071
  AVG expression IFITM1: 11.55
Probe ILMN_1214294
  AVG expression SNX29: 7.713
Probe ILMN_1214783
  AVG expression A530050E01RIK: 7.616
Probe ILMN_1214841
  AVG expression IL24: 7.762
Probe ILMN_1214998
  AVG expression HSD11B1: 8.421
Probe ILMN_1215796
  AVG expression LOC100046608: 7.035
Probe ILMN_1215862
  AVG expression CXCL9: 9.757
Probe ILMN_1216042
  AVG expression APOE: 7.5268
Probe ILMN_1216313
  AVG expression STIM1: 8.348
Probe ILMN_1217102
  AVG expression TPCN1: 8.543
Probe ILMN_1217180
  AVG expression IFITM1: 11.85
Probe ILMN_1217389
  AVG expression PKIB: 11.19
Probe ILMN_1217408
  AVG expression PRKACB: 11.88
Probe ILMN_1217629
  AVG expression ITGAE: 7.553
Probe ILMN_1217723
  AVG expression STAU2: 8.737
Probe ILMN_1217899
  AVG expression ITK: 7.055
Probe ILMN_1217913
  AVG expression D230007K08RIK: 9.225
Probe ILMN_1218036
  AVG expression SCO1: 9.072
Probe ILMN_1218037
  AVG expression TMIE: 8.752
Probe ILMN_1218181
  AVG expression IFITM6: 6.28
Probe ILMN_1218240
  AVG expression CD69: 11.83
Probe ILMN_1218525
  AVG expression IL18R1: 7.946
Probe ILMN_1218533
  AVG expression A630054M16RIK: 8.828
Probe ILMN_1218717
  AVG expression LOC385615: 8.213
Probe ILMN_1218799
  AVG expression EMB: 9.501
Probe ILMN_1219017
  AVG expression 5031436O03RIK: 7.811
Probe ILMN_1219860
  AVG expression LTK: 7.398
Probe ILMN_1219896
  AVG expression LOC623121: 9.039
Probe ILMN_1220101
  AVG expression EBI2: 11.29
Probe ILMN_1220236
  AVG expression CTSG: 7.594
Probe ILMN_1220397
  AVG expression TTC28: 7.127
Probe ILMN_1220788
  AVG expression GM590: 8.022
Probe ILMN_1221048
  AVG expression PSAT1: 10.49
Probe ILMN_1221311
  AVG expression TTYH3: 7.858
Probe ILMN_1221516
  AVG expression LOC100048841: 7.303
Probe ILMN_1221530
  AVG expression ADCY7: 8.272
Probe ILMN_1221700
  AVG expression ELA2: 6.367
Probe ILMN_1221819
  AVG expression FCGRT: 8.525
Probe ILMN_1221820
  AVG expression FAIM3: 13.69
Probe ILMN_1222036
  AVG expression PAQR7: 6.448
Probe ILMN_1222543
  AVG expression UGT1A10: 6.383
Probe ILMN_1222821
  AVG expression ROGDI: 8.291
Probe ILMN_1223600
  AVG expression INDO: 7.297
Probe ILMN_1224116
  AVG expression SMPDL3A: 7.588
Probe ILMN_1224336
  AVG expression SPSB1: 8.95
Probe ILMN_1224473
  AVG expression LOC380797: 8.096
Probe ILMN_1224945
  AVG expression E130113K22RIK: 7.685
Probe ILMN_1225085
  AVG expression PRKCB: 11.14
Probe ILMN_1225132
  AVG expression 4930519L02RIK: 7.525
Probe ILMN_1225214
  AVG expression CDKN2D: 8.24
Probe ILMN_1225730
  AVG expression FDPS: 12.65
Probe ILMN_1225764
  AVG expression MFSD2: 8.49
Probe ILMN_1226514
  AVG expression GAB3: 7.563
Probe ILMN_1226755
  AVG expression E030007N04RIK: 8.626
Probe ILMN_1226901
  AVG expression MAN2A2: 6.871
Probe ILMN_1227277
  AVG expression D9ERTD392E: 9.413
Probe ILMN_1227434
  AVG expression ITGB7: 9.885
Probe ILMN_1227570
  AVG expression LOC386545: 8.23
Probe ILMN_1227900
  AVG expression IL12RB1: 8.071
Probe ILMN_1227907
  AVG expression GMFG: 10.95
Probe ILMN_1228213
  AVG expression IFI30: 12.19
Probe ILMN_1228804
  AVG expression A430106G13RIK: 6.595
Probe ILMN_1228832
  AVG expression NGP: 8.125
Probe ILMN_1228917
  AVG expression C330023M02RIK: 9.763
